Assay results: patent US12459951B2, “Compounds that interact with RAS superfamily proteins for treatment of cancers, inflammatory diseases, rasopathies, and fibrotic disease” (SHY Therapeutics, LLC, priority 2022, dated 2025)

Key:
[1] = test system: MiaPaca-2 (expressing KRAS G12C mutant); test: Proliferation Assay (Cell Viability Assay); type: cell-based; conditions: Homo sapiens, MIA PaCa-2; read-out: Proliferation in MiaPaca-2: IC50
Outline: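 After 2–4 days' exposure at 37 °C, 5% CO2 to a single 10 μM final concentration or a dilution series (IC50), percent proliferation inhibition was derived from CellTiter 96 Aqueous One viability readings. The medium contained 0.3% DMSO and 10% FBS. KRAS G12C MiaPaca-2 cells were plated at 2000–5000/well the day before.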

KRas G12D mutant = test: Ras GTP Binding Domain Inhibition Assay (Ras Superfamily Assay); conditions: 20 μM compound; for KRas G12D mutant + SOS: % inh.: with SOS; for KRas G12D mutant: % inh.: without SOS
Outline: (§1)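 Ni-plate capture of His-tagged protein (10-30 μg/mL, o/n 4° C); cpd 20 μM or dilution series, 1% DMSO, 3 h RT ± Sos 556-1049 last h; 100 nM Cy-labelled GTP 45 min RT; 3× wash; fluorescence read.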

KRas wild type = test: as above; conditions: 20 μM compound; for KRas wild type + SOS: % inh.: with SOS; for KRas wild type: % inh.: without SOS
Outline: as §1

Rac-1 = target: T1, Rac-1 (Homo sapiens, UniProt P63000); test: as above; conditions: read-out: Rac-1: % inh.
T1 construct: made in house
Outline: as §1

SMILES	IC50 [1] [nM]	KRas G12D mutant + SOS: % inh. (KRas G12D mutant)	KRas G12D mutant: % inh. (KRas G12D mutant)	KRas wild type + SOS: % inh. (KRas wild type)	KRas wild type: % inh. (KRas wild type)	inhibition at 20 µM (Rac-1) [%]
COc1cc(-c2cn3nc(-c4nccn4C)nc(N[C@H]4C[C@H](OC)C4)c3c2C)ccn1 [Compound 160, N-((1r,3r)-3-Methoxycyclobutyl)-6-(2-methoxypyridin-4-yl)-5-methyl-2-(1-methyl-1H-imidazol-2-yl)pyrrolo[2,1-f][1,2,4]triazin-4-amine]	> 1000	A (A = 1-25% inhibition)	0 (0 = 0% inhibition)	0 (0 = 0% inhibition)	0 (0 = 0% inhibition)	1 to 25
COCCO[C@H]1C[C@H](Nc2nc(-c3nccn3C)nn3cc(-c4ccn(C)n4)c(C)c23)C1 [Compound 130, N-((1r,3r)-3-(2-Methoxyethoxy)cyclobutyl)-5-methyl-2-(1-methyl-1H-imidazol-2-yl)-6-(1-methyl-1H-pyrazol-3-yl)pyrrolo[2,1-f][1,2,4]triazin-4-amine]	> 1000	A (A = 1-25% inhibition)	B (B = 26-49% inhibition)	0 (0 = 0% inhibition)	A (A = 1-25% inhibition)	0
COc1ccnc(Nc2nc(-c3nccn3C)nn3cc(-c4cccnc4)c(C)c23)n1 [Compound 158, N-(4-Methoxy-pyrimidin-2-yl)-5-methyl-2-(1-methyl-1H-imidazol-2-yl)-6-(pyridin-3-yl)pyrrolo[2,1-f][1,2,4]triazin-4-amine]	< 150	D (D = 76-100% inhibition)	D (D = 76-100% inhibition)	D (D = 76-100% inhibition)	D (D = 76-100% inhibition)	76 to 100
Cc1c(-c2ccn(C)n2)cn2nc(-c3nccn3C)nc(Nc3cc(OCCO)ncn3)c12 [Compound 101, 2-((6-((5-Methyl-2-(1-methyl-1H-imidazol-2-yl)-6-(1-methyl-1H-pyrazol-3-yl)pyrrolo[2,1-f][1,2,4]triazin-4-yl)amino)pyrimidin-4-yl)oxy) ethan-1-ol]	150 to 500	C (C = 50-75% inhibition)	D (D = 76-100% inhibition)	B (B = 26-49% inhibition)	D (D = 76-100% inhibition)	76 to 100
CO[C@H]1C[C@@H](Nc2nc(-c3nccn3C)nn3cc(-c4ccn(C)n4)c(C)c23)C1 [Compound 131, N-((1s,3s)-3-Methoxycyclobutyl)-5-methyl-2-(1-methyl-1H-imidazol-2-yl)-6-(1-methyl-1H-pyrazol-3-yl)pyrrolo[2,1-f][1,2,4]triazin-4-amine]	> 1000	0 (0 = 0% inhibition)	A (A = 1-25% inhibition)	0 (0 = 0% inhibition)	B (B = 26-49% inhibition)	0
Cc1c(-c2ccn(C(C)C)n2)cn2nc(-c3nccn3C)nc(Nc3ncc[nH]3)c12 [Compound 125, N-(1H-Imidazol-2-yl)-6-(1-isopropyl-1H-pyrazol-3-yl)-5-methyl-2-(1-methyl-1H-imidazol-2-yl)pyrrolo[2,1-f][1,2,4]triazin-4-amine]	150 to 500	C (C = 50-75% inhibition)	C (C = 50-75% inhibition)	B (B = 26-49% inhibition)	C (C = 50-75% inhibition)	50 to 75
COCCO[C@H]1C[C@H](Nc2nc(-c3nccn3C)nn3cc(-c4ccnc(OC)c4)c(C)c23)C1 [Compound 161, N-((1r,3r)-3-(2-Methoxy-ethoxy)cyclo-butyl)-6-(2-methoxy-pyridin-4-yl)-5-methyl-2-(1-methyl-1H-imidazol-2-yl)pyrrolo[2,1-f][1,2,4]triazin-4-amine]	> 1000	0 (0 = 0% inhibition)	A (A = 1-25% inhibition)	0 (0 = 0% inhibition)	A (A = 1-25% inhibition)	1 to 25
Cc1c(-c2ccn(C3CC3)n2)cn2nc(-c3nccn3C)nc(O)c12 [Compound 134, 6-(1-Cyclopropyl-1H-pyrazol-3-yl)-5-methyl-2-(1-methyl-1H-imidazol-2-yl)pyrrolo[2,1-f][1,2,4]triazin-4-ol]	> 1000	A (A = 1-25% inhibition)	A (A = 1-25% inhibition)	0 (0 = 0% inhibition)	0 (0 = 0% inhibition)	1 to 25
COc1ccnc(Nc2nc(-c3nccn3C)nn3cc(-c4cccnc4)c(-c4cccnc4)c23)c1 [Compound 169, N-(4-methoxypyridin-2-yl)-2-(1-methyl-1H-imidazol-2-yl)-5,6-di(pyridin-3-yl)pyrrolo[2,1-f][1,2,4]triazin-4-amine]	< 150	D (D = 76-100% inhibition)	D (D = 76-100% inhibition)	D (D = 76-100% inhibition)	D (D = 76-100% inhibition)	76 to 100
CO[C@H]1CC[C@@H](Nc2nc(-c3nccn3C)nn3cc(-c4ccn(C)n4)c(C)c23)C1 (racemic) [Compound 133, rac N-((1R,3S)-3-Methoxycyclopentyl)-5-methyl-2-(1-methyl-1H-imidazol-2-yl)-6-(1-methyl-1H-pyrazol-3-yl)pyrrolo[2,1-f][1,2,4]triazin-4-amine]	> 1000	0 (0 = 0% inhibition)	B (B = 26-49% inhibition)	0 (0 = 0% inhibition)	A (A = 1-25% inhibition)	1 to 25
COc1cc(Nc2nc(-c3nccn3C)nn3cc(-c4cccnc4)c(-c4ccccn4)c23)ncn1 [Compound 167, N-(6-Methoxypyrimidin-4-yl)-2-(1-methyl-1H-imidazol-2-yl)-5-(pyridin-2-yl)-6-(pyridin-3-yl)pyrrolo[2,1-f][1,2,4]triazin-4-amine]	> 1000	A (A = 1-25% inhibition)	B (B = 26-49% inhibition)	A (A = 1-25% inhibition)	A (A = 1-25% inhibition)	1 to 25
COc1ccnc(Nc2nc(-c3nccn3C)nn3cc(-c4cnn(C(C)C)c4)c(C)c23)c1 [Compound 165, 6-(1-Isopropyl-1H-pyrazol-4-yl)-N-(4-methoxypyridin-2-yl)-5-methyl-2-(1-methyl-1H-imidazol-2-yl)pyrrolo[2,1-f][1,2,4]triazin-4-amine]	< 150	D (D = 76-100% inhibition)	D (D = 76-100% inhibition)	D (D = 76-100% inhibition)	D (D = 76-100% inhibition)	50 to 75
